Results as given in ChEMBL document CHEMBL1132637, “Design and synthesis of potent, selective, and orally bioavailable tetrasubstituted imidazole inhibitors of p38 mitogen-activated protein kinase” (J Med Chem, 1999).

Biological target: T1, MAP kinase p38 (Homo sapiens, UniProt O15264+Q15759+Q16539+P53778)
Assay: Inhibitory activity against Mitogen-activated protein kinase p38 (MAP kinase)
Assay type: protein assay

IC50 [nM]	Structure (SMILES)
9	Fc1ccc(-c2[nH]c(C3CCNCC3)nc2-c2ccncc2)cc1
300	COc1ccc(-c2nc(-c3ccccc3)[nH]c2-c2ccncc2)cc1
28	Clc1ccc(-c2[nH]c(-c3ccccc3)nc2-c2ccncc2)cc1Cl
700	c1ccc(-c2nc(-c3ccccc3)c(-c3ccncn3)[nH]2)cc1
70	Fc1ccc(-c2[nH]c(C3CCCCC3)nc2-c2ccncc2)cc1
170	Fc1ccc(-c2nc[nH]c2-c2ccncc2)cc1
1000	c1ccc(-c2ccc(-c3[nH]c(-c4ccccc4)nc3-c3ccncc3)cc2)cc1
48	Clc1ccc(-c2nc(-c3ccccc3)[nH]c2-c2ccncc2)cc1
495	Fc1cccc(-c2[nH]c(-c3ccccc3)nc2-c2ccncc2)c1
38	COc1ccc(CNc2nccc(-c3[nH]c(-c4ccccc4)nc3-c3ccccc3)n2)cc1
> 10000	c1ccc(-c2nc(-c3ccncc3)c(-c3ccc(C4CCCCC4)cc3)[nH]2)cc1
57	Nc1nccc(-c2[nH]c(-c3ccccc3)nc2-c2ccccc2)n1

Biological target: T1, MAP kinase p38
Assay: Inhibition of Mitogen-activated protein kinase p38
Assay type: protein assay

IC50 [nM]	Structure (SMILES)
7.6	COc1ccc(CNc2nccc(-c3[nH]c(C4CCNCC4)nc3-c3cccc(C(F)(F)F)c3)n2)cc1
86	FC(F)(F)c1cccc(-c2nc(-c3ccccc3)[nH]c2-c2ccncc2)c1
> 10000	COC(=O)c1ccc(-c2[nH]c(-c3ccccc3)nc2-c2ccncc2)cc1

Biological target: T2, RAF proto-oncogene serine/threonine-protein kinase (Homo sapiens, UniProt P04049)
T2 sequence (P04049 whole entry): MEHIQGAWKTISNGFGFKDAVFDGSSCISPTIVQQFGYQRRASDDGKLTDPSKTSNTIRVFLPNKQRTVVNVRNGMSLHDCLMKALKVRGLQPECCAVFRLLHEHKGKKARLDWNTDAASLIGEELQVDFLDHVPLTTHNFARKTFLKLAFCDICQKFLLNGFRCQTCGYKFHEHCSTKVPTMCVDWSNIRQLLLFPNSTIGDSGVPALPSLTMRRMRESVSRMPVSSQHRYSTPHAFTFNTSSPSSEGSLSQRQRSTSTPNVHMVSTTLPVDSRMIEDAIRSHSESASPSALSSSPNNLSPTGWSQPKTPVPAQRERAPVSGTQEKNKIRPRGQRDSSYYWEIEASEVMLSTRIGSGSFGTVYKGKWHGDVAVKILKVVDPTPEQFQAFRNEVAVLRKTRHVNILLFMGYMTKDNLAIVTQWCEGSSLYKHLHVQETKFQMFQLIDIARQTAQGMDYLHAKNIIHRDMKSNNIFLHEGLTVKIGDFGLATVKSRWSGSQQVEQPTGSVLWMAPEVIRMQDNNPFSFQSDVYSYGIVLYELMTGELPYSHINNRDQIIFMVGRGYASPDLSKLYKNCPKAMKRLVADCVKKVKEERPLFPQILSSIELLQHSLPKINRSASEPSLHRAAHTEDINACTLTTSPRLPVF
Assay: Inhibitory activity against recombinant human RAF proto-oncogene serine/threonine-protein kinase

IC50 [nM]	Structure (SMILES)
110	Fc1ccc(-c2[nH]c(C3CCCNC3)nc2-c2ccncc2)cc1 (configuration not stated)
80	Fc1ccc(-c2[nH]c(C3CCNCC3)nc2-c2ccncc2)cc1
950	COc1ccc(-c2nc(-c3ccccc3)[nH]c2-c2ccncc2)cc1
20	Clc1ccc(-c2[nH]c(-c3ccccc3)nc2-c2ccncc2)cc1Cl
5000	c1ccc(-c2nc(-c3ccccc3)c(-c3ccncn3)[nH]2)cc1
135	Fc1ccc(-c2[nH]c(C3CCCCC3)nc2-c2ccncc2)cc1
1300	Fc1ccc(-c2nc[nH]c2-c2ccncc2)cc1
2500	c1ccc(-c2ccc(-c3[nH]c(-c4ccccc4)nc3-c3ccncc3)cc2)cc1
56	Clc1ccc(-c2nc(-c3ccccc3)[nH]c2-c2ccncc2)cc1
3000	Fc1cccc(-c2[nH]c(-c3ccccc3)nc2-c2ccncc2)c1
1000	COc1ccc(CNc2nccc(-c3[nH]c(-c4ccccc4)nc3-c3ccccc3)n2)cc1
570	c1ccc(-c2nc(-c3ccncc3)c(-c3ccc(C4CCCCC4)cc3)[nH]2)cc1
750	Nc1nccc(-c2[nH]c(-c3ccccc3)nc2-c2ccccc2)n1

Biological target: T2, RAF proto-oncogene serine/threonine-protein kinase
Assay: Inhibition of human RAF kinase at 5000 nM

inhibition [%]	Structure (SMILES)
26	C[C@H](Nc1nccc(-c2nc(C3CCNCC3)n(C)c2-c2cccc(C(F)(F)F)c2)n1)c1ccccc1

Biological target: T3, Mitogen-activated protein kinase 9 (Homo sapiens, UniProt P45984)
Assay: Inhibition of c-Jun N-terminal kinase 2-alpha 1 at 40000 nM
Target sequence in this assay (P45984 whole entry, looked up): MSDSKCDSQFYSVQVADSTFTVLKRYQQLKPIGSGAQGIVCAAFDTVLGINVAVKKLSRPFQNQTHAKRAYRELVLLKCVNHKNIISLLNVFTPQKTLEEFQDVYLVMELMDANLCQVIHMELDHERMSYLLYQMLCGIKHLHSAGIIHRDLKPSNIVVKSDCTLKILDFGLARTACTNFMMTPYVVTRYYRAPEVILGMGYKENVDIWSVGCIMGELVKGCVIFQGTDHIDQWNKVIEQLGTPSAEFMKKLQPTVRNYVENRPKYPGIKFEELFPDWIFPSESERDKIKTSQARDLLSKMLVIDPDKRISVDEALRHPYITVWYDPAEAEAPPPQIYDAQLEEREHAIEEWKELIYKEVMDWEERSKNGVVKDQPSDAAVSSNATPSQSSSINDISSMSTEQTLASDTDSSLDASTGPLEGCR

inhibition [%]	Structure (SMILES)
37	C[C@H](Nc1nccc(-c2nc(C3CCNCC3)n(C)c2-c2cccc(C(F)(F)F)c2)n1)c1ccccc1

Biological target: T3, Mitogen-activated protein kinase 9
Assay: Inhibition of c-Jun N-terminal kinase 2-alpha 1
Target sequence in this assay (P45984 whole entry): as the sequence (P45984 whole entry, looked up) above

IC50 [nM]	Structure (SMILES)
735	COc1ccc(CNc2nccc(-c3[nH]c(C4CCNCC4)nc3-c3cccc(C(F)(F)F)c3)n2)cc1
140	Fc1ccc(-c2[nH]c(C3CCCNC3)nc2-c2ccncc2)cc1 (configuration not stated)
210	Fc1ccc(-c2[nH]c(C3CCNCC3)nc2-c2ccncc2)cc1
1420	c1ccc(-c2nc(-c3ccccc3)c(-c3ccncn3)[nH]2)cc1
29	Fc1ccc(-c2[nH]c(C3CCCCC3)nc2-c2ccncc2)cc1
195	Fc1ccc(-c2nc[nH]c2-c2ccncc2)cc1
910	FC(F)(F)c1cccc(-c2nc(-c3ccccc3)[nH]c2-c2ccncc2)c1
98	COc1ccc(CNc2nccc(-c3[nH]c(-c4ccccc4)nc3-c3ccccc3)n2)cc1
180	Nc1nccc(-c2[nH]c(-c3ccccc3)nc2-c2ccccc2)n1

Biological target: T2, RAF proto-oncogene serine/threonine-protein kinase
Assay: Inhibition of human c-Raf kinase

IC50 [nM]	Structure (SMILES)
2600	FC(F)(F)c1cccc(-c2nc(-c3ccccc3)[nH]c2-c2ccncc2)c1
320	COC(=O)c1ccc(-c2[nH]c(-c3ccccc3)nc2-c2ccncc2)cc1

Biological target: T2, RAF proto-oncogene serine/threonine-protein kinase
Assay: Inhibition human c-Raf kinase at 1000 nM

inhibition [%]	Structure (SMILES)
66	COc1ccc(CNc2nccc(-c3[nH]c(C4CCNCC4)nc3-c3cccc(C(F)(F)F)c3)n2)cc1
